Test results published in ChEMBL document CHEMBL1949614, “Advent of Imidazo[1,2-a]pyridine-3-carboxamides with Potent Multi- and Extended Drug Resistant Antituberculosis Activity” (ACS Med Chem Lett, 2011).
Converted amounts (≈) assume the structure as drawn.

Key:
Type in all cases: functional
[1] = system: Mycobacterium tuberculosis; assay: Antitubercular activity against multidrug-resistant isoniazid, rifampicin, ethambutol, pyrazinamide, streptomycin, kanamycin, p-aminosalicylic acid, ethionamide/thioacetazone-resistant Mycobacterium tuberculosis clinical isolate by microbroth dilution assay
[2] = system: Mycobacterium tuberculosis; assay: Antitubercular activity against extensively drug-resistant isoniazid, rifampicin, ethambutol, kanamycin, p-aminosalicylic acid, ethionamide/thioacetazone, ofloxacin-resistant Mycobacterium tuberculosis clinical isolate by microbroth dilution assay
[3] = system: Mycobacterium tuberculosis; assay: Antitubercular activity against extensively drug-resistant isoniazid, rifampicin, ethambutol, streptomycin, p-aminosalicylic acid, ofloxacin-resistant Mycobacterium tuberculosis clinical isolate by microbroth dilution assay
[4] = system: Mycobacterium tuberculosis; assay: Antitubercular activity against multidrug-resistant isoniazid, rifampicin, ethambutol, streptomycin, p-aminosalicylic acid-resistant Mycobacterium tuberculosis by microbroth dilution assay
[5] = system: Mycobacterium tuberculosis; assay: Antitubercular activity against multidrug-resistant isoniazid, rifampicin, ethambutol, kanamycin, p-aminosalicylic acid-resistant Mycobacterium tuberculosis clinical isolate by microbroth dilution assay
[6] = system: Mycobacterium tuberculosis; assay: Antitubercular activity against multidrug-resistant isoniazid, rifampicin, ethambutol, rifabutin-resistant Mycobacterium tuberculosis clinical isolate by microbroth dilution assay
[7] = system: Mycobacterium tuberculosis; assay: Antitubercular activity against multidrug-resistant isoniazid, rifampicin, ethambutol, pyrazinamide, rifabutin, thioacetazone/ethionamide-resistant Mycobacterium tuberculosis clinical isolate by microbroth dilution assay
[8] = system: Mycobacterium tuberculosis; assay: Antitubercular activity against multidrug-resistant isoniazid, rifampicin, ethambutol, pyrazinamide, streptomycin, p-aminosalicylic acid-resistant Mycobacterium tuberculosis clinical isolate by microbroth dilution assay
[9] = system: Mycobacterium tuberculosis; assay: Antitubercular activity against multidrug-resistant isoniazid, cycloserine, p-aminosalicylic acid, ethionamide/thioacetazone-resistant Mycobacterium tuberculosis clinical isolate by microbroth dilution assay
[10] = system: Mycobacterium tuberculosis; assay: Antitubercular activity against extensively drug-resistant isoniazid, rifampicin, ethambutol, streptomycin, cycloserine, p-aminosalicylic acid, ethionamide/thioacetazone, ofloxacin-resistant Mycobacterium tuberculosis clinical isolate by microbroth dilution assay

SMILES	MIC90 [1] [µM]	MIC90 [2] [µM]	MIC90 [3] [µM]	MIC90 [4] [µM]	MIC90 [5] [µM]	MIC90 [6] [µM]	MIC90 [7] [µM]	MIC90 [8] [µM]	MIC90 [9] [µM]	MIC90 [10] [µM]
COc1cccc(CNC(=O)c2c(C)nc3cc(C)ccn23)c1	≤ 0.03	0.02 (≈ 0.00619 µg/mL)	0.02 (≈ 0.00619 µg/mL)	1.01 (≈ 0.312 µg/mL)	0.13 (≈ 0.0402 µg/mL)	≤ 0.03	0.06 (≈ 0.0186 µg/mL)	0.06 (≈ 0.0186 µg/mL)	0.13 (≈ 0.0402 µg/mL)	0.03 (≈ 0.00928 µg/mL)
Cc1ccn2c(C(=O)NCc3ccccc3)c(C)nc2c1	0.07 (≈ 0.0196 µg/mL)	0.07 (≈ 0.0196 µg/mL)	0.14 (≈ 0.0391 µg/mL)	2.24 (≈ 0.626 µg/mL)	0.28 (≈ 0.0782 µg/mL)	0.14 (≈ 0.0391 µg/mL)	0.14 (≈ 0.0391 µg/mL)	1.12 (≈ 0.313 µg/mL)	1.12 (≈ 0.313 µg/mL)	0.07 (≈ 0.0196 µg/mL)
Cc1ccn2c(C(=O)NCc3cccc(F)c3)c(C)nc2c1	0.06 (≈ 0.0178 µg/mL)	0.03 (≈ 0.00892 µg/mL)	0.03 (≈ 0.00892 µg/mL)	0.26 (≈ 0.0773 µg/mL)	0.26 (≈ 0.0773 µg/mL)	0.13 (≈ 0.0387 µg/mL)	0.06 (≈ 0.0178 µg/mL)	0.06 (≈ 0.0178 µg/mL)	0.26 (≈ 0.0773 µg/mL)	0.07 (≈ 0.0208 µg/mL)
